The values below come from PMC5727211, “Development of Erasin: a chromone-based STAT3 inhibitor which induces apoptosis in Erlotinib-resistant lung cancer cells” (Scientific Reports, 2017).

In test [1] the target is T1, STAT1 SH2 domain (Homo sapiens, UniProt P42224).
T1 sequence (P42224 1-750): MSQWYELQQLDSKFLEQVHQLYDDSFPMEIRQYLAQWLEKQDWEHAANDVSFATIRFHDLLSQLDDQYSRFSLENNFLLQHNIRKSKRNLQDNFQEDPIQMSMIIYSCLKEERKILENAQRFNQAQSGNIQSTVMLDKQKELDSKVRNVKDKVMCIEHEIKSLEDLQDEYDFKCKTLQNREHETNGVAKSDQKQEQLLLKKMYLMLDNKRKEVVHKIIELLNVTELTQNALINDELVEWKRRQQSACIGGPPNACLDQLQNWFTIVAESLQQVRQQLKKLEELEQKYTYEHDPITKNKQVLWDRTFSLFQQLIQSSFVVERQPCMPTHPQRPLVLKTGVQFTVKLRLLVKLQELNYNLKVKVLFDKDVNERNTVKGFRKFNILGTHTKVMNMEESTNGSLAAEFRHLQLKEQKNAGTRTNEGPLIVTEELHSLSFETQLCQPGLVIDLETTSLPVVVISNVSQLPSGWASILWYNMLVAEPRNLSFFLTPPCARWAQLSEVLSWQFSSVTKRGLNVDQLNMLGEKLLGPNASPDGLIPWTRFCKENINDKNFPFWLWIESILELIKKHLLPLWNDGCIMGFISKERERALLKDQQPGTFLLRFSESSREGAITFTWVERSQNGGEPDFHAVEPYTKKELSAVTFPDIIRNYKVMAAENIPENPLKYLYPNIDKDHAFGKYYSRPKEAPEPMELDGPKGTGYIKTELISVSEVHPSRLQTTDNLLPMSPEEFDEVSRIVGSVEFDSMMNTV
Kind of test: FP-based competitive binding assay, STAT1 SH2 domain. Conditions: mean ± s.d., three experiments; for IC50: 1 h with protein, then 1 h with peptide, read-out: STAT1 app. IC50; for inhibition at 80 µM / STAT1 inhibition: at 80 µM. As to the method:
(§1) The STAT family display a high degree of homology. […] Vilsmeyer-Haack formylation of 2-hydroxy acetophenones led to 3-formyl chromones, which were subsequently converted to the acyl hydrazones by reaction with hydrazides (Fig. 1). The target molecules were tested for their abilities to inhibit binding of fluorophore-labeled peptides to the SH2 domains of STAT1[24], STAT3[25], and STAT5b[26] in assays based on fluorescence polarization (FP). The more distantly related SH2 domain of the tyrosine kinase Lck served as additional specificity control[27],[28].
(§2) Assays were performed essentially as described. In brief, protein was incubated with the test compounds for 1 h at room temperature at the following protein concentrations: STAT1: 400 nM, STAT3: 210 nM, STAT5b: 300 nM, Lck SH2: 35 nM. Subsequently, the corresponding fluorophore-labeled peptide was added: STAT1: (5-carboxyfluorescein)-GpYDKPHVL-OH, derived from the interferon-γ receptor[24]; STAT3: (5-carboxyfluorescein)-GpYLPQTV-NH2, derived from the gp130 subunit of the IL-6 receptor[25]; STAT5b: (5-carboxyfluorescein)-GpYLVLDKW-OH, derived from the erythropoietin receptor[26]; Lck SH2: (5-carboxyfluorescein)-GpYEEIP-OH, derived from the middle-T antigen. After a further hour of incubation, fluorescence polarization was measured in a plate reader (Tecan Infinite F500). Apparent IC50 data shown in Tables 1, 2, and S1 and the inhibition curves shown in Fig. 2a correspond to this time point. The majority of the pipetting work was carried out using a Biomek FXp workstation (Beckman-Coulter). Buffer composition: 10 mM Tris pH 8.0, 50 mM NaCl, 1 mM EDTA, 1 mM dithiothreitol (DTT), 0.1% Nonidet P-40, and 2% DMSO.

For test [2], the target named is T2, STAT5b SH2 domain (Homo sapiens, UniProt P51692).
T2 sequence (P51692 1-787): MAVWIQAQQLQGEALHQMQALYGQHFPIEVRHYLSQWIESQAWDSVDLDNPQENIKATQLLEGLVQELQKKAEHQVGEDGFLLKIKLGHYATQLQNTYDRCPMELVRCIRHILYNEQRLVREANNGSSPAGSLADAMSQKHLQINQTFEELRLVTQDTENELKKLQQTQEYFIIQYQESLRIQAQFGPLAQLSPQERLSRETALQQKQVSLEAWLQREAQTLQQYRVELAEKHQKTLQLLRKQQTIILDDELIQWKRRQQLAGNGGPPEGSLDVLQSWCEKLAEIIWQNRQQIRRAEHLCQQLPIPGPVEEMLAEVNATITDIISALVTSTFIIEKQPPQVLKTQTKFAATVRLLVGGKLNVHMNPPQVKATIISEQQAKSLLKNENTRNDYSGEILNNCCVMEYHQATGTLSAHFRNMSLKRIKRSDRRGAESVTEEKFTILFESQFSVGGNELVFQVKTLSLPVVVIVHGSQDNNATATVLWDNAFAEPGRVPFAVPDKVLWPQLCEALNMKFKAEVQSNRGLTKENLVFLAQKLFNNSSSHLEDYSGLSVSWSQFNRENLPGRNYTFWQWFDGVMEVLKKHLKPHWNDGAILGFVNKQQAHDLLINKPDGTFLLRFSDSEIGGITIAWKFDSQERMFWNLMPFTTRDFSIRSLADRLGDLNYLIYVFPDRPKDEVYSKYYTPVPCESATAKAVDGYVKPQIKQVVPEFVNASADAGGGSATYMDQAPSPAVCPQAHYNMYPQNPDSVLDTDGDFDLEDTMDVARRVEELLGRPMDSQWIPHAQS
Kind of test: FP-based competitive binding assay, STAT5b SH2 domain. As to conditions: mean ± s.d., three experiments; for IC50: 1 h with protein, then 1 h with peptide, read-out: STAT5b app. IC50; for inhibition at 80 µM / STAT5b inhibition: at 80 µM. As to the method: as §1, §2

In test [3] the target is STAT3 SH2 domain (Homo sapiens, UniProt P40763). Kind of test: FP-based competitive binding assay, STAT3 SH2 domain. As to conditions: mean ± s.d., three experiments; for IC50: 1 h with protein, then 1 h with peptide, read-out: STAT3 app. IC50; for inhibition at 80 µM / STAT3 inhibition: at 80 µM. How it is done: as §1
STAT3 SH2 domain, sequence (P40763 whole entry, the tested form may be a part): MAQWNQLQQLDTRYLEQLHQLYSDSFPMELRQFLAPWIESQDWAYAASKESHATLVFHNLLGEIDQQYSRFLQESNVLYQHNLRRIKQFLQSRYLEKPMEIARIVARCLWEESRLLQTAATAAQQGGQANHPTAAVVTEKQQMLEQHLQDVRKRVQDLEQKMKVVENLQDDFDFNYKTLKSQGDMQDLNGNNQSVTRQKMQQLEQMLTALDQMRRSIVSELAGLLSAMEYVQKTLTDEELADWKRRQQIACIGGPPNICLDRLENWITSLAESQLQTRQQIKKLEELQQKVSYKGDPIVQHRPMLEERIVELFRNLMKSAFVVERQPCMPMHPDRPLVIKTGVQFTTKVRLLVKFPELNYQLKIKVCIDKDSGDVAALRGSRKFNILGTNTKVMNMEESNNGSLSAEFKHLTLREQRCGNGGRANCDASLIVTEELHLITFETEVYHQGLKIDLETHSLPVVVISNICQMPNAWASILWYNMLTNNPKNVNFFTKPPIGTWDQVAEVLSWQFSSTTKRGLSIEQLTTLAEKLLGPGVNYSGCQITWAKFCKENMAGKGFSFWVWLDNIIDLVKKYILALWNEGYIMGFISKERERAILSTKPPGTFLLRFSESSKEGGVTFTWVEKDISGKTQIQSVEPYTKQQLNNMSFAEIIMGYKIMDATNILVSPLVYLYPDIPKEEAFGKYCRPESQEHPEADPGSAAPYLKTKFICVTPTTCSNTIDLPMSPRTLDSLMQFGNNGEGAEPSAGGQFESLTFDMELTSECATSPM
as §2, with “Buffer composition: 10 mM Tris pH 8.0, 50 mM NaCl, 1 mM EDTA, 1 mM dithiothreitol (DTT), 0.1% Nonidet P-40, and 2% DMSO.” left out

Test [4] addresses T3, Lck SH2 (Homo sapiens, UniProt P06239).
T3 construct: STAT1: 400 nM, STAT3: 210 nM, STAT5b: 300 nM, Lck SH2: 35 nM
Kind of test: FP-based competitive binding assay, Lck SH2 domain. Conditions: for Lck inhibition: at 80 µM. As to the method: as §1, §2
Supplementary Figures and Table
No Structure app. IC50 [µM] or
Supplementary Table S1: Activities of test compounds in fluorescence polarization assays against the
SH2 domains of Lck. See the Supporting Methods for details. […]

T3 sequence (P06239 127-224 limits assumed): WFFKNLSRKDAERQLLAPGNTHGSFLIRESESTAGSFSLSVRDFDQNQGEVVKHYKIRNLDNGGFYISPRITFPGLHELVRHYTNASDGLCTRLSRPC

For `O=C(N/N=C/c1coc2ccc(Cl)cc2c1=O)c1cccnc1` [Compound 3], the IC50 in test [1] stood at 32 ± 11 µM; in test [3], 40 ± 3 µM. Besides, the figures for the inhibition at 80 µM in test [2] and in test [4] were 31 ± 4% and 6 ± 6%, respectively.

Regarding `O=C(N/N=C/c1coc2ccc(Br)cc2c1=O)c1cccnc1` [Compound 4], the inhibition at 80 µM stood at 36 ± 6% in test [1], 33 ± 7% in test [2] and 13 ± 2% in test [4]. Moreover, the IC50 in test [3] was found to be 25 ± 1 µM.

As for `Cc1ccc2occ(/C=N/NC(=O)c3cccnc3)c(=O)c2c1` [Compound 5], the inhibition at 80 µM in test [1] amounted to 12 ± 3%; in test [3], 40 ± 2%. Besides, the IC50 in test [2] was 32 ± 24 µM. In addition, in test [4], the Lck inhibition result was “no inhibition”.

As for `CC(C)c1ccc2occ(/C=N/NC(=O)c3cccnc3)c(=O)c2c1` [Compound 7], the IC50 in test [1] worked out at 39 ± 2 µM; in test [2] it was 52 ± 12 µM; in test [3], 22 ± 1 µM. Further, in test [4], the Lck inhibition result is recorded as “no inhibition”.

For the compound `CC(C)(C)c1ccc2occ(C=O)c(=O)c2c1` [Compound 8a], the figures for the IC50 in test [1], in test [2] and in test [3] were 15 ± 1.4 µM, 27.7 ± 1.5 µM and 8.9 ± 0.8 µM, respectively.

Take `CCC(C)(C)c1ccc2occ(C=O)c(=O)c2c1` [Compound 9a]: the half-inhibitory concentration (IC50) in test [1] came to 10.7 ± 1.1 µM; in test [2], 34.8 ± 4.2 µM; in test [3], 5.3 ± 0.4 µM.

On to `O=C(N/N=C/c1coc2ccc(-c3ccccc3)cc2c1=O)c1cccnc1` [Compound 10], for which the STAT1 inhibition in test [1] is listed as 36 ± 2% inhibition at 80 µM. In test [2], the STAT5b inhibition entry is reported as “no inhibition at 80 µM”. For the same compound, in test [3], the STAT3 inhibition was determined as 35 ± 5% inhibition at 80 µM. Moreover, the Lck inhibition entry in test [4] was “no inhibition”.

With `COc1ccc2occ(/C=N/NC(=O)c3cccnc3)c(=O)c2c1` [Compound 11], the inhibition at 80 µM in test [1] stood at 19 ± 2%; in test [2], 30 ± 7%; in test [4], 23 ± 2%. Also, the IC50 in test [3] amounted to 65 ± 1 µM.

Take `O=C(N/N=C/c1coc2ccc([N+](=O)[O-])cc2c1=O)c1cccnc1` [Compound 12]: the inhibition at 80 µM in test [1] amounted to 3 ± 3%; in test [3], 14 ± 2%; in test [4], 22 ± 6%. Moreover, the STAT5b inhibition result in test [2] was “no inhibition at 80 µM”.

Regarding `CC(C)(C)c1ccc2occ(/C=N/NC(=O)c3ccccc3)c(=O)c2c1` [Compound 13], the IC50 in test [1] was determined as 35 ± 4 µM; in test [3] it was 14 ± 2 µM.

As for `CC(C)(C)c1ccc2occ(/C=N/NC(=O)c3ccc(O)cc3)c(=O)c2c1` [Compound 14], the figures for the IC50 in test [1] and in test [3] were 77 ± 16 µM and 19 ± 1 µM, respectively.

In turn, `COc1ccc(C(=O)N/N=C/c2coc3ccc(C(C)(C)C)cc3c2=O)cc1` [Compound 15] displayed an inhibition at 80 µM in test [1] of 34 ± 4%. Moreover, the 50% inhibitory concentration (IC50) in test [3] was 26 ± 5 µM.

As for `COc1cccc(C(=O)N/N=C/c2coc3ccc(C(C)(C)C)cc3c2=O)c1` [Compound 16], the figures for the inhibition at 80 µM in test [1] and in test [3] were 15 ± 2% and 42 ± 2%, respectively.

As to `CC(C)(C)c1ccc2occ(/C=N/NC(=O)c3ccco3)c(=O)c2c1` [Compound 17], the IC50 in test [1] was found to be 49 ± 2 µM; in test [3] it was 14 ± 1 µM.

In test [1], `CC(C)(C)c1ccc2occ(/C=N/NC(=O)c3cccs3)c(=O)c2c1` [Compound 18] had an inhibition at 80 µM of 32 ± 0.1%. Also, the IC50 in test [3] was found to be 39 ± 4 µM.

As to `CC(C)(C)c1ccc2occ(/C=N/NC(=O)c3ccc[nH]3)c(=O)c2c1` [Compound 19], the STAT1 inhibition in test [1] is given as 9 ± 4% inhibition at 80 µM. Moreover, the half-maximal inhibitory concentration (IC50) in test [3] amounted to 50 ± 7 µM.

In the case of `CC(C)(C)c1ccc2occ(/C=N/NC(=O)c3ccc(F)cc3)c(=O)c2c1` [Compound 20], the inhibition at 80 µM in test [1] was found to be 10 ± 5%; in test [3], 31 ± 8%.

In test [1], `CC(C)(C)c1ccc2occ(/C=N/NC(=O)c3ccc(Cl)cc3)c(=O)c2c1` [Compound 21] showed an STAT1 inhibition of 12 ± 4% inhibition at 80 µM. The compound also registered an STAT3 inhibition in test [3] of 20 ± 2% at 80 µM.

Turning to `CC(C)(C)c1ccc2occ(/C=N/NCc3ccccc3)c(=O)c2c1` [Compound 22], the inhibition at 80 µM in test [3] worked out at 9 ± 3%.

In test [3], `CC(C)(C)c1ccc2occ(/C=N/NS(=O)(=O)c3ccccc3)c(=O)c2c1` [Compound 23] registered an inhibition at 80 µM of 4 ± 3%.

A word on the IC50: it is the point on the concentration scale where inhibition reaches its midpoint. The term inhibition denotes the share of the control response that was lost under treatment. Low values mean a response near the control, high ones a response far below the control.
